{
  "source": "patent US20250186470A1",
  "about": "“Compositions and Methods Using Lactulose for Treating Disease” (THE UNIVERSITY OF CHICAGO, priority 2023, published 2025)",
  "key": {"[1]": {"test_system": "B. longum", "test": "Ex-germ-free mice colonized with 8-11 strain consortia containing B. longum +/- lactulose", "assay_type": "in vivo, mouse", "from_the_text": "(A) Schematic indicating timing of consortia gavage, lactulose administration (20 g/L in drinking water), and stool collection in ex-germ-free mice. […] (B) 16S metagenomics from stool samples without (left facet within each consortia) and with (right facet within each consortia) lactulose exposure is shown as relative abundance. Concentrations of acetate and taurocholic acid are shown in units of mM below each paired sample. (C) Bifidobacteria relative abundance, acetate concentration (mM), and taurocholic acid concentrations (μg/ml) were measured and compared between mice that were and were not exposed to lactulose. […] DNA was extracted using the QIAamp PowerFecal Pro DNA kit (Qiagen). Prior to extraction, samples were subjected to mechanical disruption using a bead beating method. Briefly, samples were suspended in a bead tube (Qiagen) along with lysis buffer and loaded on a bead mill homogenizer (Fisherbrand). Samples were then centrifuged, and supernatant was resuspended in a reagent that effectively removed inhibitors. DNA was then purified routinely using a spin column filter membrane and quantified using Qubit. […] Short chain fatty acids (SCFA, i.e. butyrate, acetate, propionate, and succinate) were derivatized with pentafluorobenzyl bromide (PFBBr) and analyzed via negative ion collision induced-gas chromatography-mass spectrometry ([-]CI-GC-MS, Agilent 8890) 92. Eight bile acids (BA, i.e. primary: cholic acid; conjugated primary: glycocholic acid, taurocholic acid; secondary: deoxycholic acid, lithocholic acid [LCA], isodeoxycholic acid; modified secondary: alloisolithocholic acid [alloisoLCA] and 3-oxolithocholic acid [3-oxoLCA]) were quantified (μg/mL) by negative mode liquid chromatography-electrospray ionization-quadrupole time-of-flight-MS ([-]LC-ESI-QTOF-MS, Agilent 6546). […] For germ-free studies, 6-18 week-old male and female C57BL/6 mice were used. Mice were initially obtained from The Jackson Laboratory and subsequently bred and raised in a germ-free isolator. […]"}, "[2]": {"test_system": "SBP", "test": "Spontaneous bacterial peritonitis (SBP) in liver disease patients paired with fecal samples, logistic regression", "assay_type": "in vivo, human", "text": "FIGS. 12A-12E: Bifidobacteria expansion and associated metabolite production are associated with decreased incidence of spontaneous bacterial peritonitis (SBP). (A) Flow diagram depicting number of samples and number of patients that were filtered out at each step of analysis for SBP. (B) Taxonomic relative abundance by shotgun metagenomics of stool samples paired to ascites samples is plotted in order of decreasing Bifidobacteria abundance from left to right. Underneath each stool sample is the clinical diagnosis associated with an ascites sample (SBP (red) or not SBP (green)). (C) Volcano plot of normalized metabolite concentrations. P-values were calculated using a two-tailed Wilcoxon rank sum test and are corrected for multiple comparisons using the Benjamini-Hochberg procedure. Values with log 2 fold-change >1 (corresponding to a 2-fold change with a p-value <0.05) were considered significant. (D and E) Quantitative levels for butyrate, propionate, lithocholic acid, and alloisolithocholic acid were compared from samples associated and not associated with SBP. Units for SCFA are mM, and units for BA derivatives are in μg/mL. Each point represents a single sample. Median and interquartile range are indicated by the horizontal line and box, respectively. […] Statistical comparisons between individual groups were analyzed using a two-tailed Wilcoxon rank sum test. […]"}, "[3]": {"test": "90-day survival of liver disease patients, Kaplan-Meier and Cox proportional hazards", "assay_type": "in vivo, human", "details": "Table S10, covariate Lactulose, Bifido >10%, model also has MELD-Na, age and sex at enrollment", "protocol": "FIGS. 5A-5H: Bifidobacteria expansion and associated metabolite production are associated with decreased incidence of systemic infection and prolonged survival. (A) A Linear discriminant analysis effect size (LEfSe) showing the significant (Wilcoxon rank-sum, two-tailed, p≤0.05) effect sizes of taxa between groups. (B) Acetate (mM) and taurocholic acid (μg/mL) were quantified, and (C) conversion from conjugated-primary BA to primary BA and then to secondary BAs was tested for each sample. Each point represents a molar ratio for an individual sample. (A-C) Sample size: n=101 (no SBP), n=21 (SBP)). (D) LEfSe showing the significant (Wilcoxon rank-sum, two-tailed, p≤0.05) effect sizes of taxa between groups. (E) Acetate (mM) and taurocholic acid (μg/mL) were quantified, and (F) conversion from conjugated-primary BA to primary BA and then to secondary BAs was tested for each sample. Each point represents a molar ratio for an individual sample. (D-F) Sample size: n=227 (no bacteremia), n=19 (bacteremia)). (B,C,E, and F) Each point represents a single sample. Median and interquartile range are indicated by the horizontal line and box, respectively. The lower vertical line depicts Q1-1.5*IQR and the upper vertical line depicts Q3+1.5*IQR. Statistical comparisons between individual groups were analyzed using a two-tailed Wilcoxon rank sum test. […]"}},
  "data": [
    {"smiles": "OC[C@H]1O[C@@H](O[C@@H]2[C@@H](CO)OC(O)(CO)[C@H]2O)[C@H](O)[C@@H](O)[C@H]1O", "note": "(mixture of isomers) [Lactulose, lactulose]", "values": [
      {"measurement": "Relative abundance of B. longum", "setting": "[1]; all consortia (CON.1-3), 20 g/L lactulose in drinking water", "result": "increased"},
      {"measurement": "Fecal taurocholic acid concentrations", "setting": "[1]; all three consortia, 20 g/L lactulose", "result": "reduced"},
      {"measurement": "Fecal acetate concentrations", "setting": "[1]; consortia, 20 g/L lactulose", "result": "only modestly increased"},
      {"measurement": "Samples with lactulose exposure among sbp", "setting": "[2]; N = 21", "result": "(76%)"},
      {"measurement": "Samples with lactulose exposure among no sbp", "setting": "[2]; N = 101", "result": "(79%)"},
      {"measurement": "Estimate (Cox proportional hazards coefficient)", "setting": "[3]", "result": "−0.87"},
      {"measurement": "Exp (coef)", "setting": "[3]", "result": 0.42}
    ]}
  ]
}
